# From patent publication US20210113529A1, “MEDICINE FOR PREVENTING OR TREATING OPHTHALMIC DISEASE ASSOCIATED WITH ENHANCED INTRAOCULAR NEOVASCULARIZATION AND/OR INTRAOCULAR VASCULAR PERMEABILITY” (KYOTO UNIVERSITY, priority 2018, published 2021)
# Legend:
# [1] = Body weight in CNV model; type: in vivo, mice; details: oral once daily dosing, vs vehicle group
# Description: A case in which FA was unable to be performed owing to cloudiness caused by a flaw in the eye produced before the FA evaluation and a case in which CNV was connected at the time of the evaluation of the area of CNV were excluded from analysis, and the above-mentioned results were each calculated as a mean of 11 or 12 mice in each group. […] A case in which FA was unable to be performed owing to cloudiness caused by a flaw in the eye produced before the FA evaluation and a case in which CNV was connected at the time of the evaluation of the area of CNV were excluded from analysis, and the above-mentioned results were each calculated as a mean of 12 mice in each group.
# [2] = tested on: retinal vein occlusion (RVO) model; assay: Retinal vein occlusion (RVO) model, oral: thickness of retinal inner nuclear layer (INL); type: in vivo, mice; details: dose of at least 0.03 mg/kg or more, 12 hours before and immediately after laser irradiation, 24 hours after irradiation
# Experimental: Eight-week-old mice (Japan SLC, Inc., ddy strain) were anesthetized by intramuscularly administering 10 mL/kg of a mixed anesthetic solution diluted so as to contain ketamine (120 mg/kg) and xylazine (6 mg/kg). After that, 0.15 mL of rose bengal (20 mg/kg; WAKO) was administered into the tail vein, and a vein three head systems away from the optic nerve head of the right eye of the mice was irradiated with a laser to occlude a retinal vein. For the occlusion, the laser irradiation was performed 10 times to 15 times per vein. For the laser irradiation, an attachment of a fundus photography apparatus Micron 4 (Phoenix Research Laboratories, Inc., Pleasanton, Calif., USA) was used (wavelength: 532 nm, spot size: 50 μm, irradiation time: 5,000 ms, laser output: 50 mW). Three veins were occluded per eye, and it was confirmed with photographs of the fundus that the laser-irradiated veins had been completely occluded. […]
# After 24 hours from the laser irradiation, the mice were euthanized by cervical dislocation, the eyeball was extirpated, and histological evaluation was performed by a hematoxylin-eosin staining method. In addition, the thickness of the retinal inner nuclear layer (INL) was measured at intervals of 240 μm on both sides, i.e., ear side and nose side from the center of the optic nerve head. […]
# [3] = tested on: VEGF; assay: VEGF production in CNV model (western blot of choroid-retinal pigment epithelium); type: in vivo, mice; details: 0.3 mg/kg orally once daily, 5 days after laser irradiation
# Experimental: A CNV model generated by the same method as in Example 1 was orally administered Compound 1 suspended in a vehicle (0.5% MC solution) at a dose of 0.3 mg/kg (in terms of free form) once daily from the day before laser irradiation to the day of sampling. Controls were an untreated group (normal group) and a group administered only the vehicle (vehicle group). Experiments were performed using 6 mice in the Compound 1 administration group, 8 mice in the normal group, and 7 mice in the vehicle group. After 5 days from the laser irradiation, the mice were euthanized by cervical dislocation, and the eyeball was extirpated. Choroid-retinal pigment epithelium was isolated from the eyeball, and the expression amount of VEGF protein was measured by a western blot method using an anti-VEGF antibody (manufactured by Merck Millipore). In addition, the results of calculation of the expression amount of VEGF relative to that of β-actin with reference to the normal group are shown in FIG. 5(b).
# [4] = tested on: human retinal vascular endothelial cells (HRMECs); assay: Permeability of human retinal vascular endothelial cells (Transwell, FITC-dextran); type: cell-based; details: HRMECs in Transwell; 0.3 nM, 3 nM or 30 nM; 60 minutes pre-culture, 60 minutes after FITC-dextran (40 kDa)
# Experimental: The upper chamber of Transwell (diameter: 6.5 mm, pore size: 0.4 μm: Corning Incorporated) coated with collagen and fibronectin was seeded with human retinal vascular endothelial cells (HRMECs) (Cell Systems) at a cell density of 5×10^4 cells/well, and the cells were cultured in Endothelial Cell Growth Medium MV 2 (PromoCell GmbH) under a 5% CO2 atmosphere at 37° C. for 6 days. Then, to the upper chamber and lower chamber of the Transwell, Compound 1 at a final concentration of 0 nM, 0.3 nM, 3 nM, or 30 nM, which had been prepared using 0.001% dimethyl sulfoxide-containing Endothelial Cell Growth Medium MV 2 as a vehicle, was added, and culture was continued. A well to which only the vehicle was added was used as a control. After 60 minutes of culture, 1 mg/mL of fluorescein isothiocyanate (FITC)-dextran (40 kDa: Sigma-Aldrich) was added to the upper chamber of the Transwell, and 60 minutes later, the fluorescence intensity of the medium in the lower chamber was measured to measure the amount of FITC-dextran permeating the lower chamber.
# [5] = target: S1P1 receptor (Homo sapiens, UniProt P21453); details: GTP[γ35S] binding assay; report PLoS One, 2014, 9(10), e110819; read-out: EC50 for S1P1 receptor agonist activity; cited from earlier work
# Chain of S1P1 receptor (P21453 whole entry): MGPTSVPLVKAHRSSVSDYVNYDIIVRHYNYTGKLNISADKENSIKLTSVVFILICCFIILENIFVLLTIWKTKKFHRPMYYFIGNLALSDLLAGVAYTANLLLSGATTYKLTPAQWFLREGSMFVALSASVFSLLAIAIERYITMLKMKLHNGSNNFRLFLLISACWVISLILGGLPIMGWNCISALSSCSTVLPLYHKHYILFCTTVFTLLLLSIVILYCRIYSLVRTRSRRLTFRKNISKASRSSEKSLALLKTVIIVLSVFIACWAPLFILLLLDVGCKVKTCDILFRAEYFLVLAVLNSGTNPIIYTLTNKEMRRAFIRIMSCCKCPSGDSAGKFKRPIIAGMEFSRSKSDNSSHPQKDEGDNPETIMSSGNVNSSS
# [6] = target: T1, S1P4 receptor (Homo sapiens, UniProt O95977); details: GTP[γ35S] binding assay; report PLoS One, 2014; cited from earlier work
# T1 sequence (O95977 1-384): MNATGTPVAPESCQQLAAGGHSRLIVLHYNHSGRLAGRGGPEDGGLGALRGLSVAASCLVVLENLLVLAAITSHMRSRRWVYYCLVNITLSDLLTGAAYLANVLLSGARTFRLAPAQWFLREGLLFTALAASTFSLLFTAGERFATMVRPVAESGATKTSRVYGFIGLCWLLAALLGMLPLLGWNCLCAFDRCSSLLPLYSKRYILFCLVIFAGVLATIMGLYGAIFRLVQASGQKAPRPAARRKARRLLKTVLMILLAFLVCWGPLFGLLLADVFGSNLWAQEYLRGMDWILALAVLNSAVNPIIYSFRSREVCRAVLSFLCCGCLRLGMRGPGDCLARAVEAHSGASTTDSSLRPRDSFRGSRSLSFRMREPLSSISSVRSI
# [7] = target: S1P5 receptor (Homo sapiens, UniProt Q9H228); details: GTP[γ35S] binding assay; report PLoS One, 2014, 9(10), e110819; read-out: EC50 for S1P5 receptor agonist activity; cited from earlier work
# Chain of S1P5 receptor (Q9H228 whole entry): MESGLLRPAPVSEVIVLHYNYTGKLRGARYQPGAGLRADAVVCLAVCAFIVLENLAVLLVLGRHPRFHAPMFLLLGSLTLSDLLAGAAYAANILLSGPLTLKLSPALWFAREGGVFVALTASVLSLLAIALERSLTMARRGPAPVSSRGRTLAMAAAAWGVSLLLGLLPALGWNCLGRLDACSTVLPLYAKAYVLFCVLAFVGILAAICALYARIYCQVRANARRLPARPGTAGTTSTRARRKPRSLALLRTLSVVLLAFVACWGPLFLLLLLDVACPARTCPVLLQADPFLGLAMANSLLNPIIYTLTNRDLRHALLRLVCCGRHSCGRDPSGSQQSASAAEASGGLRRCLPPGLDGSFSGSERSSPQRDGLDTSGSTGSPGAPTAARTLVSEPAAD
smiles,measurement,setting,value
"C[C@H](Oc1ccc(-c2nc(-c3ccc4[nH]cnc4c3)no2)cc1C(F)(F)F)C(F)(F)F.Cl [Compound 1, 5-{5-[3-(trifluoromethyl)-4-{[(2S)-1,1,1-trifluoropropan-2-yl]oxy}phenyl]-1,2,4-oxadiazol-3-yl}-1H-benzimidazole monohydrochloride]",change in body weight between the groups before sampling,[1],a significant change in body weight between the groups before sampling was not found
same,thickening of the INL (retinal edema),[2],ameliorated the thickening of the INL
same,"expression of VEGF relative to β-actin, as compared to the vehicle group",[3],significantly reduced the expression of VEGF
same,amount of FITC-dextran permeating the lower chamber (fluorescence intensity),[4],significantly decreased the amount of FITC-dextran permeating the lower chamber
same,EC50,[5],7.4 nM
same,EC50 for S1P4 receptor agonist activity as compared to that for the S1P1 receptor,[6],≥ 100 fold
same,EC50,[7],7.5 nM
